These are literature values, as cited in US20080221049A1, “Free-flowing lyophilized tobramycin formulation” (APP Pharmaceuticals, LLC., priority 2004, published 2008).

Where a name gives a salt, the structure may show the parent alone. Read-outs that look alike come from different tables or passages of the source.

For this data set the following is noted: after reconstitution, e.g. with 30 mL Sterile Water for Injection.

Regarding `NCC1OC(OC2C(N)CC(N)C(OC3OC(CO)C(O)C(N)C3O)C2O)C(N)CC1O` [Tobramycin sulfate, 0-3-amino-3-deoxy-α-D-glucopyranosyl-(1→4) —O—[2,6-diamino-2,3,6-trideoxy-α-D-ribo-hexopyranosyl-(1→6)]-2-deoxy-L-streptamine, sulfate (2:5)(salt)], the “time within which the reconstituted solution should be used” value reads like this: (stored at room temperature) at most 24 h; (stored under refrigeration) at most 96 h.
